Data from ChEMBL document CHEMBL1201862, “PubChem BioAssay data set” (2004).
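Each compound was tested at five concentrations against cells in 96-well plates for 48 hours. GI50 = concentration required for 50% inhibition of growth.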 Active and inactive are the calls of the source. Cut-off read from the data, not from the text of the source: active = GI50 up to about 1.1 µM and inactive = higher. Where a SMILES comes first, the peptide text is derived from it.

What was measured:
Assay in all cases: NCI tumour cell line growth inhibition, 48 h
[1] = system: OVCAR-5
[2] = system: PC-3
[3] = system: HCT-15
[4] = system: NCI-H226
[5] = system: MCF7
[6] = system: SR
[7] = system: UO-31
[8] = system: SK-OV-3
[9] = system: DU-145
[10] = system: NCI-H522
[11] = system: SK-MEL-5
[12] = system: NCI-H23
[13] = system: UACC-257
[14] = system: A498
[15] = system: SK-MEL-28
[16] = system: M14
[17] = system: CCRF-CEM
[18] = system: Hs-578T
[19] = system: UACC-62
[20] = system: RXF 393

Cn1cnc([N+](=O)[O-])c1Sc1nc(N)nc2c1ncn2Cc1ccccc1
GI50 [1]: 23.2 µM (inactive) | GI50 [2]: 11.6 µM (inactive) | GI50 [3]: 18 µM | GI50 [4]: 23.9 µM (inactive) | GI50 [5]: 35.4 µM (inactive) | GI50 [6]: 17.9 µM (inactive) | GI50 [7]: 15.5 µM (inactive) | GI50 [8]: 24.5 µM (inactive) | GI50 [9]: 20.8 µM (inactive) | GI50 [10]: 10.2 µM (inactive) | GI50 [11]: 19 µM (inactive) | GI50 [12]: 19.2 µM (inactive) | GI50 [13]: 14.3 µM (inactive) | GI50 [14]: 25 µM (inactive) | GI50 [15]: 20.5 µM (inactive) | GI50 [16]: 22.9 µM (inactive) | GI50 [17]: 13.9 µM (inactive) | GI50 [18]: 20.5 µM (inactive) | GI50 [19]: 16.3 µM (inactive) | GI50 [20]: 19.5 µM (inactive)

Cc1nc2nn[nH]n2c(=O)c1CCO
GI50 [1]: > 100 µM (inactive) | GI50 [2]: > 100 µM (inactive) | GI50 [3]: > 100 µM | GI50 [4]: > 100 µM (inactive) | GI50 [5]: > 100 µM (inactive) | GI50 [6]: > 100 µM (inactive) | GI50 [7]: > 100 µM (inactive) | GI50 [8]: > 100 µM (inactive) | GI50 [9]: > 100 µM (inactive) | GI50 [10]: > 100 µM (inactive) | GI50 [11]: > 100 µM (inactive) | GI50 [12]: > 100 µM (inactive) | GI50 [13]: > 100 µM (inactive) | GI50 [14]: > 100 µM (inactive) | GI50 [15]: > 100 µM (inactive) | GI50 [16]: > 100 µM (inactive) | GI50 [17]: > 100 µM (inactive) | GI50 [18]: > 100 µM (inactive) | GI50 [19]: > 100 µM (inactive) | GI50 [20]: > 100 µM (inactive)

CCOC(=O)C(SCCO)C(C(=O)OCC)n1cnc2c(N)ncnc21 (stereo not given)
GI50 [1]: 7.05 µM (inactive) | GI50 [2]: 6.05 µM (inactive) | GI50 [3]: 6.27 µM | GI50 [4]: 11.1 µM (inactive) | GI50 [5]: 5.55 µM (inactive) | GI50 [6]: 4.63 µM (inactive) | GI50 [7]: 20.7 µM (inactive) | GI50 [8]: 54.7 µM (inactive) | GI50 [9]: > 67.3 µM (inactive) | GI50 [10]: 3.46 µM (inactive) | GI50 [11]: 23.1 µM (inactive) | GI50 [12]: 14.8 µM (inactive) | GI50 [13]: 35.1 µM (inactive) | GI50 [14]: 14.9 µM (inactive) | GI50 [15]: 17.3 µM (inactive) | GI50 [16]: 5.07 µM (inactive) | GI50 [17]: 1.96 µM (inactive) | GI50 [18]: 17.3 µM (inactive) | GI50 [19]: 12.3 µM (inactive) | GI50 [20]: 14.6 µM (inactive)

N/C(=N\Nc1ccc(Cl)cc1)c1cnccn1
GI50 [1]: > 100 µM (inactive) | GI50 [2]: 54.7 µM (inactive) | GI50 [3]: 21.4 µM | GI50 [4]: 48.8 µM (inactive) | GI50 [5]: 38.5 µM (inactive) | GI50 [6]: 5.71 µM (inactive) | GI50 [7]: 50.7 µM (inactive) | GI50 [8]: > 100 µM (inactive) | GI50 [9]: > 100 µM (inactive) | GI50 [10]: 28.3 µM (inactive) | GI50 [11]: 21.1 µM (inactive) | GI50 [12]: > 100 µM (inactive) | GI50 [13]: 28.3 µM (inactive) | GI50 [14]: > 100 µM (inactive) | GI50 [15]: 73.6 µM (inactive) | GI50 [16]: 6.64 µM (inactive) | GI50 [17]: 28.6 µM (inactive) | GI50 [18]: > 100 µM (inactive) | GI50 [19]: 5.04 µM (inactive) | GI50 [20]: > 100 µM (inactive)

COc1cc(C2C=C(c3ccccc3)Oc3cc4c(cc32)OCO4)cc(OC)c1OC (stereo not given)
GI50 [1]: 0.585 µM (active) | GI50 [2]: 0.354 µM (active) | GI50 [3]: 0.324 µM | GI50 [4]: 0.376 µM (active) | GI50 [5]: 0.409 µM (active) | GI50 [6]: 0.333 µM (active) | GI50 [7]: 1.19 µM (inactive) | GI50 [8]: 0.191 µM (active) | GI50 [9]: 0.361 µM (active) | GI50 [10]: 0.327 µM (active) | GI50 [11]: 0.502 µM (active) | GI50 [12]: 0.436 µM (active) | GI50 [13]: 3.33 µM (inactive) | GI50 [14]: 0.495 µM (active) | GI50 [15]: 0.57 µM (active) | GI50 [16]: 0.35 µM (active) | GI50 [17]: 0.46 µM (active) | GI50 [18]: 0.348 µM (active) | GI50 [19]: 0.446 µM (active) | GI50 [20]: 0.0843 µM (active)

CCn1c(=O)ccc2ccc(N(CCO)CCO)nc21
GI50 [1]: > 100 µM (inactive) | GI50 [2]: > 100 µM (inactive) | GI50 [3]: > 100 µM | GI50 [4]: > 100 µM (inactive) | GI50 [5]: > 100 µM (inactive) | GI50 [6]: > 100 µM (inactive) | GI50 [7]: > 100 µM (inactive) | GI50 [8]: > 100 µM (inactive) | GI50 [9]: > 100 µM (inactive) | GI50 [10]: > 100 µM (inactive) | GI50 [11]: > 100 µM (inactive) | GI50 [12]: > 100 µM (inactive) | GI50 [13]: > 100 µM (inactive) | GI50 [14]: > 100 µM (inactive) | GI50 [15]: > 100 µM (inactive) | GI50 [16]: > 100 µM (inactive) | GI50 [17]: > 100 µM (inactive) | GI50 [18]: > 100 µM (inactive) | GI50 [19]: > 100 µM (inactive) | GI50 [20]: > 100 µM (inactive)

COC1(C)Cc2c(c(C)c(O)c3c2C(=O)C=C(Cl)C3=O)O1 (stereo not given)
GI50 [1]: > 100 µM (inactive) | GI50 [2]: > 100 µM (inactive) | GI50 [3]: 45.8 µM | GI50 [4]: > 100 µM (inactive) | GI50 [5]: 41.8 µM (inactive) | GI50 [6]: 3.89 µM (inactive) | GI50 [7]: > 87.3 µM (inactive) | GI50 [8]: > 100 µM (inactive) | GI50 [9]: 91.4 µM (inactive) | GI50 [10]: 16.9 µM (inactive) | GI50 [11]: 40.8 µM (inactive) | GI50 [12]: 66.8 µM (inactive) | GI50 [13]: > 56.5 µM (inactive) | GI50 [14]: > 100 µM (inactive) | GI50 [15]: 39.7 µM (inactive) | GI50 [16]: 21.8 µM (inactive) | GI50 [17]: 3.39 µM (inactive) | GI50 [18]: 23.5 µM (inactive) | GI50 [19]: 35.8 µM (inactive) | GI50 [20]: 16 µM (inactive)

O=c1[nH]c(=O)n(C2CC(O)C(CO)O2)cc1I (stereo not given)
GI50 [1]: > 100 µM (inactive) | GI50 [2]: > 100 µM (inactive) | GI50 [3]: > 100 µM | GI50 [4]: > 100 µM (inactive) | GI50 [5]: 18.5 µM (inactive) | GI50 [6]: 38.7 µM (inactive) | GI50 [7]: > 100 µM (inactive) | GI50 [8]: > 100 µM (inactive) | GI50 [9]: > 100 µM (inactive) | GI50 [10]: > 100 µM (inactive) | GI50 [11]: > 100 µM (inactive) | GI50 [12]: > 100 µM (inactive) | GI50 [13]: > 100 µM (inactive) | GI50 [14]: > 100 µM (inactive) | GI50 [15]: > 100 µM (inactive) | GI50 [16]: > 70.3 µM (inactive) | GI50 [17]: 17.5 µM (inactive) | GI50 [18]: > 100 µM (inactive) | GI50 [19]: > 100 µM (inactive) | GI50 [20]: > 100 µM (inactive)

CC(C)CC(NC(=O)C(Cc1ccccc1)NC(=O)C(Cc1c[nH]c2ccccc12)NC(=O)CNC(=O)C(N)Cc1ccc(O)cc1)C(=O)O (stereo not given) (H-YGWFL-OH; configuration not given here)
GI50 [1]: > 100 µM (inactive) | GI50 [2]: 44.7 µM (inactive) | GI50 [3]: 69 µM | GI50 [4]: 46.8 µM (inactive) | GI50 [5]: 37.4 µM (inactive) | GI50 [6]: 32.4 µM (inactive) | GI50 [7]: 81.3 µM (inactive) | GI50 [8]: > 100 µM (inactive) | GI50 [9]: 31.8 µM (inactive) | GI50 [10]: 34 µM (inactive) | GI50 [11]: 29 µM (inactive) | GI50 [12]: 30.1 µM (inactive) | GI50 [13]: 41.2 µM (inactive) | GI50 [14]: 32.3 µM (inactive) | GI50 [15]: 95.3 µM (inactive) | GI50 [16]: 47.6 µM (inactive) | GI50 [17]: 42.6 µM (inactive) | GI50 [18]: 42 µM (inactive) | GI50 [19]: 67.3 µM (inactive) | GI50 [20]: 40.3 µM (inactive)
